Drawing on patent US20250059171A1 (Hoffmann-La Roche Inc., priority 2021, published 2025), this text covers IC50 for 17 compounds.

One test has as its target SARS-CoV 3CLpro (Severe acute respiratory syndrome coronavirus, UniProt P0C6X7). In words: biochemical.
Another test deals with SARS-CoV-2 3CLpro (Severe acute respiratory syndrome coronavirus 2, UniProt P0DTD1). In words: biochemical.
A further test concerns the target MERS-CoV 3CLpro (Middle East respiratory syndrome-related coronavirus, UniProt K9N7C7). Briefly: biochemical.
The next test addresses HCoV-229E 3CLpro (Human coronavirus 229E, UniProt P0C6X1). In words: HCoV-229E 3CLpro inhibition assay (FRET). The class given is biochemical.

SMILES strings stand for the structures.

HCoV-229E 3CLpro, sequence (P0C6X1 2966-3267): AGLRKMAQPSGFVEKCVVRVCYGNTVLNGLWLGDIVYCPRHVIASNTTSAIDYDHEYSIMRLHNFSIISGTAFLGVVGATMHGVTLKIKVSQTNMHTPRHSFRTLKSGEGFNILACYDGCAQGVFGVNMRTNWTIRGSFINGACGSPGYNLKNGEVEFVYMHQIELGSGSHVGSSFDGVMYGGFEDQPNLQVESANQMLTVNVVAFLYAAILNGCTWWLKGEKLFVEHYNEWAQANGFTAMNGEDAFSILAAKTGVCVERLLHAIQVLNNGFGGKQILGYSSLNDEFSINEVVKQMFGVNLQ
MERS-CoV 3CLpro, sequence (K9N7C7 3248-3553): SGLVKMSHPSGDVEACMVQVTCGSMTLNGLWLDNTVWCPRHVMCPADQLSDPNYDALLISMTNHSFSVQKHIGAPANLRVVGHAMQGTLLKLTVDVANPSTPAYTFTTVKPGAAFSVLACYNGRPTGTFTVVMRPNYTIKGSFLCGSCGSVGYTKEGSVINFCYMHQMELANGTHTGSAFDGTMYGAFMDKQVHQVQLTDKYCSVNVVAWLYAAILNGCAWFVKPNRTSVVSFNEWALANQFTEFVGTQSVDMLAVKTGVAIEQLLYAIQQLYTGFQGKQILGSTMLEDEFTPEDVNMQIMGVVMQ

What is called IC50 is the midpoint of a concentration-inhibition curve. A higher IC50 goes with a need for much substance. Regarding `CCC(CC)[C@H](NC(=O)C1CC1)C(=O)N1C[C@H]2[C@@H]([C@H]1C(=O)NN(C[C@@H]1CCCNC1=O)C(=O)[C@H](F)Cl)C2(C)C` [Example 172, N-[(1S)-1-[(1R,2S,5S)-2-[[[(2R)-2-chloro-2-fluoro-acetyl]-[[(3S)-2-oxo-3-piperidyl]methyl]amino]carbamoyl]-6,6-dimethyl-3-azabicyclo[3.1.0]hexane-3-carbonyl]-2-ethyl-butyl]cyclopropanecarboxamide], the IC50 turned out to be 26 nM against SARS-CoV 3CLpro, 17 nM at SARS-CoV-2 3CLpro, 187 nM on MERS-CoV 3CLpro and 71 nM against HCoV-229E 3CLpro.

`CCC(CC)[C@H](NC(=O)C(F)F)C(=O)N1C[C@H]2[C@@H]([C@H]1C(=O)NN(C[C@@H]1CCCNC1=O)C(=O)[C@H](F)Cl)C2(C)C` [Example 173, N-[(1S)-1-[(1R,2S,5S)-2-[[[(2R)-2-chloro-2-fluoro-acetyl]-[[(3S)-2-oxo-3-piperidyl]methyl]amino]carbamoyl]-6,6-dimethyl-3-azabicyclo[3.1.0]hexane-3-carbonyl]-2-ethyl-butyl]-2,2-difluoro-acetamide]: the IC50 against SARS-CoV 3CLpro was 18 nM; at SARS-CoV-2 3CLpro, 13 nM; on MERS-CoV 3CLpro, 175 nM; against HCoV-229E 3CLpro it was 27 nM.

Turning to `CCC(CC)[C@H](NC(=O)C(F)F)C(=O)N1C[C@@H]2CCC[C@@H]2[C@H]1C(=O)NN(C[C@@H]1CCCNC1=O)C(=O)[C@H](F)Cl` [Example 174, N-[(1S)-1-[(3S,3aS,6aR)-3-[[[(2R)-2-chloro-2-fluoro-acetyl]-[[(3S)-2-oxo-3-piperidyl]methyl]amino]carbamoyl]-3,3a,4,5,6,6a-hexahydro-1H-cyclopenta[c]pyrrole-2-carbonyl]-2-ethyl-butyl]-2,2-difluoro-acetamide], the IC50 on SARS-CoV 3CLpro stood at 12 nM; against SARS-CoV-2 3CLpro, 10 nM; against MERS-CoV 3CLpro, 123 nM; against HCoV-229E 3CLpro, 29 nM.

For the compound `CCC(C)(C)[C@H](NC(=O)C(F)F)C(=O)N1C[C@@H]2CCC[C@@H]2[C@H]1C(=O)NN(C[C@@H]1CCCNC1=O)C(=O)[C@H](F)Cl` [Example 175, N-[(1S)-1-[(3S,3aS,6aR)-3-[[[(2R)-2-chloro-2-fluoro-acetyl]-[[(3S)-2-oxo-3-piperidyl]methyl]amino]carbamoyl]-3,3a,4,5,6,6a-hexahydro-1H-cyclopenta[c]pyrrole-2-carbonyl]-2,2-dimethyl-butyl]-2,2-difluoro-acetamide], the IC50 against SARS-CoV 3CLpro turned out to be 15 nM; at SARS-CoV-2 3CLpro it was 10 nM; on MERS-CoV 3CLpro, 105 nM; at HCoV-229E 3CLpro it was 37 nM.

As to `CC[C@H](C)[C@H](NC(=O)C(F)F)C(=O)N1C[C@H]2[C@@H]([C@H]1C(=O)NN(C[C@@H]1CCCNC1=O)C(=O)[C@H](F)Cl)C2(C)C` [Example 176, N-[(1S,2S)-1-[(1R,2S,5S)-2-[[[(2R)-2-chloro-2-fluoro-acetyl]-[[(3S)-2-oxo-3-piperidyl]methyl]amino]carbamoyl]-6,6-dimethyl-3-azabicyclo[3.1.0]hexane-3-carbonyl]-2-methyl-butyl]-2,2-difluoro-acetamide], the half-maximal inhibitory concentration (IC50) on SARS-CoV 3CLpro came to 16 nM; on SARS-CoV-2 3CLpro, 11 nM; against MERS-CoV 3CLpro it was 96 nM; at HCoV-229E 3CLpro, 28 nM.

Turning to `CC1(C)[C@@H]2[C@@H](C(=O)NN(C[C@@H]3CCNC3=O)C(=O)[C@H](F)Cl)N(C(=O)c3cc(C(F)(F)F)cc(C(F)(F)F)c3)C[C@@H]21` [Example 177, (1R,2S,5S)-3-[3,5-bis(trifluoromethyl)benzoyl]-N′-[(2R)-2-chloro-2-fluoro-acetyl]-6,6-dimethyl-N′—[[(3S)-2-oxopyrrolidin-3-yl]methyl]-3-azabicyclo[3.1.0]hexane-2-carbohydrazide], the IC50 on SARS-CoV 3CLpro amounted to 232 nM; on SARS-CoV-2 3CLpro, 147 nM; against MERS-CoV 3CLpro, 278 nM; on HCoV-229E 3CLpro it was 138 nM.

For `CC1(C)[C@@H]2[C@@H](C(=O)NN(C[C@@H]3CCNC3=O)C(=O)[C@H](F)Cl)N(C(=O)Cc3cc(C(F)(F)F)cc(C(F)(F)F)c3)C[C@@H]21` [Example 178, (1R,2S,5S)-3-[2-[3,5-bis(trifluoromethyl)phenyl]acetyl]-N′-[(2R)-2-chloro-2-fluoro-acetyl]-6,6-dimethyl-N′—[[(3S)-2-oxopyrrolidin-3-yl]methyl]-3-azabicyclo[3.1.0]hexane-2-carbohydrazide], the IC50 against SARS-CoV 3CLpro amounted to 259 nM; on SARS-CoV-2 3CLpro, 148 nM; on MERS-CoV 3CLpro, 264 nM; at HCoV-229E 3CLpro, 65 nM.

For `CC1(C)[C@@H]2[C@@H](C(=O)NN(C[C@@H]3CCNC3=O)C(=O)[C@H](F)Cl)N(C(=O)c3cc(F)cc(C(F)(F)F)c3)C[C@@H]21` [Example 179, (1R,2S,5S)—N′-[(2R)-2-chloro-2-fluoro-acetyl]-3-[3-fluoro-5-(trifluoromethyl)benzoyl]-6,6-dimethyl-N′—[[(3S)-2-oxopyrrolidin-3-yl]methyl]-3-azabicyclo[3.1.0]hexane-2-carbohydrazide], the IC50 at SARS-CoV 3CLpro worked out at 222 nM; against SARS-CoV-2 3CLpro, 201 nM; against MERS-CoV 3CLpro, 315 nM; against HCoV-229E 3CLpro, 93 nM.

Take `CC1(C)[C@@H]2[C@@H](C(=O)NN(C[C@@H]3CCNC3=O)C(=O)[C@H](F)Cl)N(C(=O)/C=C/c3cc(C(F)(F)F)cc(C(F)(F)F)c3)C[C@@H]21` [Example 180, (1R,2S,5S)-3-[(E)-3-[3,5-bis(trifluoromethyl)phenyl]prop-2-enoyl]-N′-[(2R)-2-chloro-2-fluoro-acetyl]-6,6-dimethyl-N′—[[(3S)-2-oxopyrrolidin-3-yl]methyl]-3-azabicyclo[3.1.0]hexane-2-carbohydrazide]: the 50% inhibitory concentration (IC50) against SARS-CoV 3CLpro turned out to be 786 nM; at SARS-CoV-2 3CLpro it was 491 nM; at MERS-CoV 3CLpro, 657 nM; on HCoV-229E 3CLpro, 241 nM.

Regarding `CC1(C)[C@@H]2[C@@H](C(=O)NN(C[C@@H]3CCNC3=O)C(=O)[C@H](F)Cl)N(C(=O)/C=C/c3cc(F)cc(F)c3)C[C@@H]21` [Example 181, (1R,2S,5S)—N′-[(2R)-2-chloro-2-fluoro-acetyl]-3-[(E)-3-(3,5-difluorophenyl)prop-2-enoyl]-6,6-dimethyl-N′—[[(3S)-2-oxopyrrolidin-3-yl]methyl]-3-azabicyclo[3.1.0]hexane-2-carbohydrazide], the IC50 against SARS-CoV 3CLpro amounted to 252 nM; against SARS-CoV-2 3CLpro, 208 nM; against MERS-CoV 3CLpro, 363 nM; at HCoV-229E 3CLpro, 48 nM.

Regarding `CC(C)(C)[C@H](Nc1cc(F)ncn1)C(=O)N1C[C@@H]2CCC[C@@H]2[C@H]1C(=O)NN(C[C@@H]1CCNC1=O)C(=O)[C@H](F)Cl` [Example 182], the IC50 against SARS-CoV 3CLpro stood at 12 nM; at SARS-CoV-2 3CLpro it was 11 nM; against MERS-CoV 3CLpro, 89 nM; at HCoV-229E 3CLpro it was 37 nM.

For `CC(C)(C)[C@H](Nc1ncncc1F)C(=O)N1C[C@@H]2CCC[C@@H]2[C@H]1C(=O)NN(C[C@@H]1CCNC1=O)C(=O)[C@H](F)Cl` [Example 183], the IC50 against SARS-CoV 3CLpro amounted to 16 nM; on SARS-CoV-2 3CLpro, 11 nM; against MERS-CoV 3CLpro, 174 nM; at HCoV-229E 3CLpro it was 59 nM.

`CC(C)(C)[C@H](Nc1ccccn1)C(=O)N1C[C@@H]2CCC[C@@H]2[C@H]1C(=O)NN(C[C@@H]1CCNC1=O)C(=O)[C@H](F)Cl` [Example 184]: the IC50 against SARS-CoV 3CLpro was 41 nM; against SARS-CoV-2 3CLpro, 16 nM; at MERS-CoV 3CLpro, 275 nM; against HCoV-229E 3CLpro it was 86 nM.

For `CC[C@H](C)[C@H](NC(=O)[C@H](F)Cl)C(=O)N1C[C@H]2[C@@H]([C@H]1C(=O)NN(C[C@@H]1CCNC1=O)C(=O)[C@H](F)Cl)C2(C)C` [Example 185, (2R)-2-chloro-N-[(1S,2S)-1-[(1R,2S,5S)-2-[[[(2R)-2-chloro-2-fluoro-acetyl]-[[(3S)-2-oxopyrrolidin-3-yl]methyl]amino]carbamoyl]-6,6-dimethyl-3-azabicyclo[3.1.0]hexane-3-carbonyl]-2-methyl-butyl]-2-fluoro-acetamide], the concentration for half-maximal inhibition (IC50) at SARS-CoV 3CLpro amounted to 21 nM; on SARS-CoV-2 3CLpro, 11 nM; against MERS-CoV 3CLpro, 99 nM; on HCoV-229E 3CLpro it was 40 nM.

For `CC[C@H](C)[C@H](NC(=O)[C@@H](F)Cl)C(=O)N1C[C@H]2[C@@H]([C@H]1C(=O)NN(C[C@@H]1CCNC1=O)C(=O)[C@@H](F)Cl)C2(C)C` [Example 186, (2S)-2-chloro-N-[(1S,2S)-1-[(1R,2S,5S)-2-[[[(2S)-2-chloro-2-fluoro-acetyl]-[[(3S)-2-oxopyrrolidin-3-yl]methyl]amino]carbamoyl]-6,6-dimethyl-3-azabicyclo[3.1.0]hexane-3-carbonyl]-2-methyl-butyl]-2-fluoro-acetamide], the concentration for half-maximal inhibition (IC50) on SARS-CoV 3CLpro came out at 23 nM; against SARS-CoV-2 3CLpro it was 13 nM; on MERS-CoV 3CLpro, 69 nM; on HCoV-229E 3CLpro it was 49 nM.

On to `CC[C@H](C)[C@H](NC(=O)[C@@H](F)Cl)C(=O)N1CC(C)(C)C[C@H]1C(=O)NN(C[C@@H]1CCNC1=O)C(=O)[C@@H](F)Cl` [Example 187, (2S)-2-chloro-N-[(1S,2S)-1-[(2S)-2-[[[(2S)-2-chloro-2-fluoro-acetyl]-[[(3S)-2-oxopyrrolidin-3-yl]methyl]amino]carbamoyl]-4,4-dimethyl-pyrrolidine-1-carbonyl]-2-methyl-butyl]-2-fluoro-acetamide], for which the IC50 against SARS-CoV 3CLpro was found to be 43 nM; against SARS-CoV-2 3CLpro, 24 nM; at MERS-CoV 3CLpro, 167 nM; against HCoV-229E 3CLpro, 36 nM.

`CC[C@H](C)[C@H](NC(=O)[C@H](F)Cl)C(=O)N1C[C@H]2[C@@H]([C@H]1C(=O)NN(C[C@@H]1CCCNC1=O)C(=O)[C@H](F)Cl)C2(C)C` [Example 188, (2R)-2-chloro-N-[(1S,2S)-1-[(1R,2S,5S)-2-[[[(2R)-2-chloro-2-fluoro-acetyl]-[[(3S)-2-oxo-3-piperidyl]methyl]amino]carbamoyl]-6,6-dimethyl-3-azabicyclo[3.1.0]hexane-3-carbonyl]-2-methyl-butyl]-2-fluoro-acetamide]: the half-inhibitory concentration (IC50) against SARS-CoV 3CLpro was 12 nM; at SARS-CoV-2 3CLpro, 8 nM; on MERS-CoV 3CLpro, 68 nM; against HCoV-229E 3CLpro, 26 nM.
